Data as given in patent US7612200B2, “Inhibitors of protein kinases” (Locus Pharmaceuticals, Inc., priority 2004, dated 2009).

Key:
Format in all cases: biochemical
[1] = molecular target: c-MET (Homo sapiens, UniProt P08581); test: Kinase activity at ATP Km,app, c-MET; conditions: compound 2 μM
Protocol: (§1) Met Kinase Activity: In a final reaction volume of 25 μl, Met (h) (5-10 mU) is incubated with 8 mM MOPS pH 7.0, 0.2 mM EDTA, 250 μM KKKSPEGYVNIEFG, 10 mM MgAcetate and [γ-^33P-ATP] (specific activity approx. 500 cpm/pmol, concentration as required). The reaction is initiated by the addition of the MgATP mix. After incubation for 40 minutes at room temperature, the reaction is stopped by the addition of 5 μl of a 3% phosphoric acid solution. 10 μl of the reaction is then spotted onto a P30 filtermat and washed three times for 5 minutes in 75 mM phosphoric acid and once in methanol prior to drying and scintillation counting.

[2] = molecular target: ERK2 (Homo sapiens, UniProt P28482); test: Kinase activity at ATP Km,app, ERK2; conditions: compound 2 μM
Chain of ERK2 (P28482 whole entry, species assumed): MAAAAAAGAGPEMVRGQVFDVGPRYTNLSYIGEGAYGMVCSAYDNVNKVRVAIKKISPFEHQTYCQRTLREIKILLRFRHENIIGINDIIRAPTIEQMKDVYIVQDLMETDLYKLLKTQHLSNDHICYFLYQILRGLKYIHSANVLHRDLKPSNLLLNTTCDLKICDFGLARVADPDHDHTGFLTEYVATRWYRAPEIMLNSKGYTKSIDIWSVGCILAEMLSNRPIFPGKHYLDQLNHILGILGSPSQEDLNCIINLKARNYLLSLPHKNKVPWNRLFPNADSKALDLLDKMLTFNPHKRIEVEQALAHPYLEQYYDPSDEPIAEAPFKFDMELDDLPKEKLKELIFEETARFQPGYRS

[3] = molecular target: FGFR1 (Homo sapiens, UniProt P11362); test: Kinase activity at ATP Km,app, FGFR1; conditions: compound 2 μM
Chain of FGFR1 (P11362 22-822, species assumed): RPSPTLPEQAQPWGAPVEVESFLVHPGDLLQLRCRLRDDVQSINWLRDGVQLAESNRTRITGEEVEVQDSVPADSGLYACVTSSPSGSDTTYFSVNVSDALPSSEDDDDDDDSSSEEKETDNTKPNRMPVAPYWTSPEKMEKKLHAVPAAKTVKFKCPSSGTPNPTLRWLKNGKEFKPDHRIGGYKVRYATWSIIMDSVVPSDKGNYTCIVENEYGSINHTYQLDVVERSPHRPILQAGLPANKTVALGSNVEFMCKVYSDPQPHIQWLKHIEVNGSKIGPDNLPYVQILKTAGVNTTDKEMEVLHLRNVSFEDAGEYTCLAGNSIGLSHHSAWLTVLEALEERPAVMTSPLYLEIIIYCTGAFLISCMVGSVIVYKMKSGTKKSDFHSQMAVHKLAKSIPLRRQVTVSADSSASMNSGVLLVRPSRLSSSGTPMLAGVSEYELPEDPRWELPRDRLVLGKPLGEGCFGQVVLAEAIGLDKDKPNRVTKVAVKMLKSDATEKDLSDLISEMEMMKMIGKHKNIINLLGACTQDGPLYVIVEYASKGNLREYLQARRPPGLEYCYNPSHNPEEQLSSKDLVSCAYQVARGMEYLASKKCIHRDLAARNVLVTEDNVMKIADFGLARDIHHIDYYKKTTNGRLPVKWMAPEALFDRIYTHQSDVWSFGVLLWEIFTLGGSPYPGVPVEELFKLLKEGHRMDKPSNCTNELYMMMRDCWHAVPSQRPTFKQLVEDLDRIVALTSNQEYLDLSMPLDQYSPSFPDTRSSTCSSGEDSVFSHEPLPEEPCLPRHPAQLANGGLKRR

[4] = molecular target: GSK3-beta (Homo sapiens, UniProt P49841); test: Kinase activity at ATP Km,app, GSK3-beta; conditions: 40 min, compound 2 μM
Chain of GSK3-beta (P49841 whole entry): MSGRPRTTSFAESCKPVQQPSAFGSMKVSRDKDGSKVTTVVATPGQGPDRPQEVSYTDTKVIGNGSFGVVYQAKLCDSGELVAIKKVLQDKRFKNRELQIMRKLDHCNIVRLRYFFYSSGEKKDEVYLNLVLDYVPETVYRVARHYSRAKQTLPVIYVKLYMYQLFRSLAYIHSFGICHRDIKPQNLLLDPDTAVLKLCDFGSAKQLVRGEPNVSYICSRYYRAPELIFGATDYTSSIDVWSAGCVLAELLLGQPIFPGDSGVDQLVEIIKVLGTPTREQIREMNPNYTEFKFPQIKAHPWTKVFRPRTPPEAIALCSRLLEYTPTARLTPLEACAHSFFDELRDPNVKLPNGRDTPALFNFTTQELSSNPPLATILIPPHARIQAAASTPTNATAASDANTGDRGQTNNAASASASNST
Protocol: as §1, with “GSK3β Kinase” for “Met Kinase”, “μl, GSK3β” for “μl, Met”, “[…]” for “8 mM”, “EDTA,[…](p)EDEEE (phosphor GS2 peptide),” for “EDTA, 250 μM KKKSPEGYVNIEFG,”, “in 50” for “in 75”

[5] = molecular target: T1, IRAK4 (Homo sapiens, UniProt Q9NWZ3); test: Kinase activity at ATP Km,app, IRAK4; conditions: compound 2 μM
T1 sequence (Q9NWZ3 1-460): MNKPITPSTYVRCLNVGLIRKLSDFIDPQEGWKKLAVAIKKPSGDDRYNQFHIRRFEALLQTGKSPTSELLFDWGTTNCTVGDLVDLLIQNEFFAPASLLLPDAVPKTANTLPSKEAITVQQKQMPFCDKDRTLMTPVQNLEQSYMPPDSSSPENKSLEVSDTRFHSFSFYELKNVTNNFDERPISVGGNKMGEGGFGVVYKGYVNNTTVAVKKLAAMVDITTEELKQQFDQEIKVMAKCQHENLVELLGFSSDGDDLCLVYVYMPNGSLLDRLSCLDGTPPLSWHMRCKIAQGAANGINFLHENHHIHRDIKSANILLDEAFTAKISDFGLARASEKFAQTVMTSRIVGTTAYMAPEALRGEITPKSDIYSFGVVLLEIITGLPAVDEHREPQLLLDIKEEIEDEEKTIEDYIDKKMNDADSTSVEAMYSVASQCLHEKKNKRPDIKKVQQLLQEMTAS

[6] = molecular target: PDGFR-beta (Homo sapiens, UniProt P09619); test: Kinase activity at ATP Km,app, PDGFR-beta; conditions: 40 min, compound 2 μM
Chain of PDGFR-beta (P09619 33-1106): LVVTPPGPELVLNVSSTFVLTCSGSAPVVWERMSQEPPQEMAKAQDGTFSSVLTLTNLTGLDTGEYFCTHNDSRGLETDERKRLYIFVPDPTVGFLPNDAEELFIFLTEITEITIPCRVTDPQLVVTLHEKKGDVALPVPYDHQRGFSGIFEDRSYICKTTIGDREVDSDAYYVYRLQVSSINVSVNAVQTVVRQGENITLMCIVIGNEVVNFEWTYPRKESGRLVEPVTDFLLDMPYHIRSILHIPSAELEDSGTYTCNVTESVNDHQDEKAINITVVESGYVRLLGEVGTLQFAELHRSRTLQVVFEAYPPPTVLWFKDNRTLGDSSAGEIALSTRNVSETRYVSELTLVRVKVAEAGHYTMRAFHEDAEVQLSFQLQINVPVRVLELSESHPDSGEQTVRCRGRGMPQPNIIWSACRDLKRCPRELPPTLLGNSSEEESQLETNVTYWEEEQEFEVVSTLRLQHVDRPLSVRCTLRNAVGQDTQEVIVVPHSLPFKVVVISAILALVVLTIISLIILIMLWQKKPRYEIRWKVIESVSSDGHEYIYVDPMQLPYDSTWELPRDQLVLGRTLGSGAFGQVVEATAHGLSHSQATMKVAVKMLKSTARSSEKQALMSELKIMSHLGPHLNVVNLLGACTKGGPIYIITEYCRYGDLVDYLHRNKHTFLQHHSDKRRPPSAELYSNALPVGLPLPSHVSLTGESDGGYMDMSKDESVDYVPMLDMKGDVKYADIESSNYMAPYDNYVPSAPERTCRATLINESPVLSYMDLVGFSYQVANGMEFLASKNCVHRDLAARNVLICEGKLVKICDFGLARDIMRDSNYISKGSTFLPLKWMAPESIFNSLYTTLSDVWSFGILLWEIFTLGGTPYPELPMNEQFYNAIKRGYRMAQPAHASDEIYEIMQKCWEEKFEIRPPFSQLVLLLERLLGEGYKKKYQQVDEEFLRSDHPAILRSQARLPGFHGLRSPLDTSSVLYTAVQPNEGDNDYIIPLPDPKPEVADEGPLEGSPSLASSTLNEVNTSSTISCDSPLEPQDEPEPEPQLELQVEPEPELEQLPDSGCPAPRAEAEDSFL
Protocol: as §1, with “PDGFRβ” for “Met”, “7.0” for “7.0,”, “0.1 mg/ml poly(Glu, Tyr) 4:1, 10 mM MnCl2,” for “250 μM KKKSPEGYVNIEFG,”, “Filtermat A” for “P30 filtermat”

[7] = molecular target: PKC-alpha (Homo sapiens, UniProt P17252); test: Kinase activity at ATP Km,app, PKC-alpha; conditions: 40 min, compound 2 μM
Protocol: as §1, with “PKCα” for “Met”, “20” for “8”, “HEPES” for “MOPS”, “7.4, 0.03% Triton X-100, 0.1” for “7.0, 0.2”, “CaCl2, 0.1 mg/ml phosphatidylserine, 10 μg/ml diacylglycerol, 0.1 mg/ml histone Hi,” for “EDTA, 250 μM KKKSPEGYVNIEFG,”

Chain of c-MET (P08581 25-1390): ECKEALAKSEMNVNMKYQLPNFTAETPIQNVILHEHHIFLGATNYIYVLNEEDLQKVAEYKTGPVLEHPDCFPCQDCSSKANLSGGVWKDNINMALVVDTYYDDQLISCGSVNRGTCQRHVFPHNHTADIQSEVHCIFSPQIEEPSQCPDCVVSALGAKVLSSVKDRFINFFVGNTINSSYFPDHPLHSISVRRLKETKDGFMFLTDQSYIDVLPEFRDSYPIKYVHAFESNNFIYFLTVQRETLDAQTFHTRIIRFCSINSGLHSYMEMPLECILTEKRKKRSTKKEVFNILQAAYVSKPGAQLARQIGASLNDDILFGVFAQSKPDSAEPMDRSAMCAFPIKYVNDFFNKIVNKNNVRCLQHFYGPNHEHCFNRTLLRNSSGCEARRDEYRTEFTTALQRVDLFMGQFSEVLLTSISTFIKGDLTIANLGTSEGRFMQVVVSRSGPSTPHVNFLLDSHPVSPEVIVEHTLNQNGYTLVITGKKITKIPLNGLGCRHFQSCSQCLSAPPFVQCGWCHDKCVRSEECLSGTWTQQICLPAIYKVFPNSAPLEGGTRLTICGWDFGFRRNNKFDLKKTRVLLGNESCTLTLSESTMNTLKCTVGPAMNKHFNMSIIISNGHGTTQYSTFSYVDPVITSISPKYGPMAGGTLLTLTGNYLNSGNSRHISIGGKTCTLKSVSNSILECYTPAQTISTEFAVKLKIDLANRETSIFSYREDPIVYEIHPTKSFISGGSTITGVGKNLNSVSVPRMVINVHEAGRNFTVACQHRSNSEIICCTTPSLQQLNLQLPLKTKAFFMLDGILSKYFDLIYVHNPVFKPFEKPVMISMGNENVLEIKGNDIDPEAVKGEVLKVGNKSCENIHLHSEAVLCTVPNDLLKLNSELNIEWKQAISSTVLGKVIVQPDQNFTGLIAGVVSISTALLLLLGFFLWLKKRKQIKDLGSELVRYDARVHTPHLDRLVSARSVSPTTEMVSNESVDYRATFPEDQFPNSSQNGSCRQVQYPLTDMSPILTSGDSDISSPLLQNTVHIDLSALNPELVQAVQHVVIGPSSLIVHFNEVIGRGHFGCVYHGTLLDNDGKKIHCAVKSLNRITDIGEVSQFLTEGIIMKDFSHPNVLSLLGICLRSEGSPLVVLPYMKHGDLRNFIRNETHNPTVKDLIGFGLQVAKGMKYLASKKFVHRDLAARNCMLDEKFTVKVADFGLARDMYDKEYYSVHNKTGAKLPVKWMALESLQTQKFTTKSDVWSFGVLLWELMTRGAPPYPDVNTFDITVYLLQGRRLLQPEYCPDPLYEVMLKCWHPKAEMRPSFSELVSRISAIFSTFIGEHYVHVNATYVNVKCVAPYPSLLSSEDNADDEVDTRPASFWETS

Compound	% Inhibition at ATP Km,app [1]	inhibition at 2 µM [2] [%]	inhibition at 2 µM [3] [%]	inhibition at 2 µM [4] [%]	% Inhibition at ATP Km,app [5]	inhibition at 2 µM [6] [%]	inhibition at 2 µM [7] [%]
CC(C)(C)c1cc(C(=O)N2CCNS(=O)(=O)CC2)c(NC(=O)Nc2ccc(Oc3ccncc3)cc2)s1 [Example 1, 1-(5-tert-Butyl-3-(1,1-dioxo-1λ^6-[1,2,5]thiadiazepane-5-carbonyl)thiophen-2-yl)-3-(4-(pyridin-4-yloxy)phenyl)urea]	0-25%	0 to 25	0 to 25	0 to 25	0-25%	26 to 50	0 to 25
CC(C)(C)c1cc(C(=O)N2CCNC(=O)C2)c(NC(=O)Nc2ccc(Oc3ccncc3)cc2)s1 [Example 2, 1-(5-tert-Butyl-3-(3-oxo-piperazine-1-carbonyl)thiophen-2-yl)-3-(4-(pyridin-4-yloxy)phenyl)urea]	26-50%	0 to 25	0 to 25	0 to 25	0-25%	26 to 50	0 to 25
CC(C)(C)c1cc(C(=O)N2CCNC(=O)CC2)c(NC(=O)Nc2ccc(Oc3ccncc3)cc2)s1 [Example 4, 1-(5-tert-Butyl-3-(5-oxo-[1,4]diazepane-1-carbonyl)thiophen-2-yl)-3-(4-(pyridin-4-yloxy)phenyl)urea]	0-25%	0 to 25	26 to 50	0 to 25	0-25%	26 to 50	0 to 25
